This note sets out measurements from patent US20050228180A1, “Alpha, omega-dicarboximide derivatives as useful uro-selective a1a adrenoceptor blockers” (priority 2002, published 2005).

Structures are written as SMILES. pKi: −log10 of the molar value. Counter-ions that a name gives are not always drawn.

As usually defined, the pKi is the Ki on a negative log10 scale, so that one unit is a factor of ten.

One test concerns the target T1, α1A adrenoceptor (Rattus norvegicus, UniProt P43140).
T1 construct: from tissue; host or cells: rat submaxillary gland membranes
T1 sequence (P43140 1-466): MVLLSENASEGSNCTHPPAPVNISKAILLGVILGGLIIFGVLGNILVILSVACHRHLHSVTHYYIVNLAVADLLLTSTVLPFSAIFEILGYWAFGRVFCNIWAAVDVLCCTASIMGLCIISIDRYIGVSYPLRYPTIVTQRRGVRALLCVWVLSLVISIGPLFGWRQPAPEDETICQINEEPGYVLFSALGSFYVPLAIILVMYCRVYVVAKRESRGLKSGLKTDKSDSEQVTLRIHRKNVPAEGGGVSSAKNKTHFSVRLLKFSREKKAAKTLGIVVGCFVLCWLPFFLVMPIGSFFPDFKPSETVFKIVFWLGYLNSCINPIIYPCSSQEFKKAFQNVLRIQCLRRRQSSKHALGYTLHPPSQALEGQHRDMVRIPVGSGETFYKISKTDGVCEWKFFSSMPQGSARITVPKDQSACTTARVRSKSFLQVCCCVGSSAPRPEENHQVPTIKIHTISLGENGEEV
Kind of test: Radioligand binding, [3H] prazosin displacement, rat submaxillary membranes. The conditions noted are these: for pKi: [3H] prazosin displacement, rat submaxillary membranes, read-out: Affinity (Ki) α1A (Rat Submaxillary); for α1B/α1A: ratio of binding affinities, rat liver / rat submaxillary. The protocol: (§1) Receptor binding assays were performed using native a-adrenoceptors. The affinity of different compounds for α1A and α1B adrenoceptor subtypes was evaluated by studying their ability to displace specific [^3H] prazosin binding from the membranes of rat submaxillary and liver respectively (Michel et al., Br J Pharmacol, 1989: 98:883). The binding assays were performed according to U+Prichard et al. (Eur J Pharmacol, 1978; 50:87 with minor modifications.
(§2) Submaxillary glands were isolated immediately after sacrifice. The liver was perfused with buffer (Tris HCl 50 mM, NaCl 100 mM, 10 mM EDTA pH 7.4). The tissues were homogenised in 10 volumes of buffer (Tris HCl 50 mM, NaCl 100 mM, 10 mM EDTA pH 7.4). The homogenate was filtered through two layers of wet gauge and filtrate was centrifuged at 500 g for 10 min. The supernatant was subsequently centrifuged at 40,000 g for 45 min. The pellet thus obtained was resuspended in the same volume of assay buffer (Tris HCl 50 mM, 5 mM EDTA pH 7.4) and was stored at −70° C. until the time of assay.
(§3) The membrane homogenates (150-250 μg protein) were incubated in 250 μl of assay buffer (Tris HCl 50 mM, EDTA 5 mM, pH 7.4) at 24-25° C. for 1 hour. Non specific binding was determined in the presence of 300 nM prazosin. The incubation was terminated by vacuum filtration over GF/B fibre filters. The filters were then washed with ice cold 50 mM Tris HCl buffer (pH 7.4). The filtermats were dried and bound radioactivity retained on filters was counted. The IC50 and Kd were estimated by using the non-linear curve-fitting program using G Pad Prism software. The value of inhibition constant Ki was calculated from competitive binding studies by using Cheng & Prusoff equation (Cheng & Prusoff, Biochem Pharmacol, 1973, 22: 3099-3108), Ki=IC50/(1+L/Kd) where L is the concentration of [^3H] prazosin used in the particular experiment (Table 1).

For another test, the target named is T2, α1B adrenoceptor (Rattus norvegicus, UniProt P15823).
T2 construct: from tissue; host or cells: rat liver membranes
T2 sequence (P15823 1-515): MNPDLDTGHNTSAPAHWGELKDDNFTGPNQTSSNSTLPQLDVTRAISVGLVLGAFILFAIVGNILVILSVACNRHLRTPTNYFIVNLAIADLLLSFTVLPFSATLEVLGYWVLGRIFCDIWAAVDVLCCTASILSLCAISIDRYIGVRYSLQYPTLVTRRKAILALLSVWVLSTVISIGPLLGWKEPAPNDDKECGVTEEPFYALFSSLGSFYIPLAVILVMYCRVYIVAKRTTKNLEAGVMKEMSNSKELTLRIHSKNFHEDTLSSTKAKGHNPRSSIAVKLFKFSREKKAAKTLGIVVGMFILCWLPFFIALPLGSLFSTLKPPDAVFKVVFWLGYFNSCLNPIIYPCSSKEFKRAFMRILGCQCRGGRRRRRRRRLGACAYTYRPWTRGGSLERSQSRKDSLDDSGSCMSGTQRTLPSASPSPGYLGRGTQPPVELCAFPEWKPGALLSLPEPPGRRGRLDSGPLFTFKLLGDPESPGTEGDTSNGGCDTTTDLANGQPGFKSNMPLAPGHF
Kind of test: Radioligand binding, [3H] prazosin displacement, rat liver membranes. The conditions noted are these: read-out: Affinity (Ki) α1B (Rat Liver). On the procedure:
as §1, §2, §3

Consider `CC(C)Oc1ccccc1N1CCN(CCCN2C(=O)[C@@H]3[C@H](C2=O)[C@H]2C=C[C@@H]3O2)CC1` [Compound No. 61, 2-[3-{4-(2-Isopropoxyphenyl)piperazin-1-yl}-propyl]-exo-4,7-epoxy-3a,4,7,7a-tetrahydro-1H-isoindole-1,3(2H)-dione hydrochloride], for which, on α1A adrenoceptor, the pKi was 9.03 and the α1B/α1A turned out to be 31. At α1B adrenoceptor, the pKi was 7.54.

Regarding `CC(C)Oc1ccccc1N1CCN(CCC(=O)N2C(=O)C3CC=CCC3C2=O)CC1.Cl` (stereo not drawn) [Compound No. 62, 2-[3-{4-(2-Isopropoxyphenyl)piperazin-1-yl}-1-oxo-propyl]-3a,4,7,7a-tetrahydro-1H-isoindole-1,3(2H)-dione hydrochloride], at α1A adrenoceptor, the pKi was less than 6.00 and the α1B/α1A was determined as 1. The pKi at α1B adrenoceptor is less than 6.00.

As for `CC(C)Oc1ccccc1N1CCN(CCC(=O)N2C(=O)C3CCCCC3C2=O)CC1.Cl` (stereo not drawn) [Compound No. 63, 2-[3-{4-(2-Isopropoxyphenyl)piperazin-1-yl}-1-oxo-propyl]-3a,4,5,6,7,7a-hexahydro-1H-isoindole-1,3(2H)-dione hydrochloride], at α1A adrenoceptor, the pKi is less than 7.00 and the α1B/α1A was greater than 10. In addition, at α1B adrenoceptor, the pKi was less than 6.00.

As to `CC(C)Oc1ccccc1[N+]1([O-])CCN(CCCN2C(=O)C3CC=CCC3C2=O)CC1` (stereo not drawn) [Compound No. 64, 2-[3-{4-(2-Isopropoxyphenyl)piperazin-1-yl,4-N-oxide}propyl]-3a,4,7,7a-tetrahydro-1H-isoindole-1,3(2H)-dione], on α1A adrenoceptor, the pKi is 7.55 and the α1B/α1A stood at 31. Besides, at α1B adrenoceptor, the pKi is 6.06.

For the compound `CC(C)Oc1ccccc1N1CC[N+]([O-])(CC(O)CN2C(=O)C3CC=CCC3C2=O)CC1` (stereo not drawn) [Compound No. 65, 2-[3-{4-(2-Isopropoxyphenyl)piperazin-1-yl,1-N-oxide}2-hydroxypropyl]-3a,4,7,7a-tetrahydro-1H-isoindole-1,3(2H)-dione], on α1A adrenoceptor, the pKi is less than 6.00 and the α1B/α1A is given as 1. The negative logarithm of the Ki (pKi) on α1B adrenoceptor is less than 6.00.

As for `CCOc1ccccc1N1CCN(CCCN2C(=O)C3CC(O)C(O)CC3C2=O)CC1` (stereo not drawn) [Compound No. 66, hydrochloride], the pKi on α1A adrenoceptor was 8.28; on α1B adrenoceptor it was 6.78. Moreover, the α1B/α1A on α1A adrenoceptor (hydrochloride) is given as 32.

Take `CC(C)Oc1ccccc1N1CCN(CCCN2C(=O)C3CC=CCC3C2=O)C1=O` (stereo not drawn) [Compound No. 67, 2-[3-{3-(2-Isopropoxyphenyl)imidazolidon-1-yl}propyl]-3a,4,7,7a-tetrahydro-1H-isoindole-1,3(2H)-dione]: on α1A adrenoceptor, the pKi is 6.72 and the α1B/α1A is greater than 53. Also, the pKi at α1B adrenoceptor is less than 5.00.

Consider `CC(C)Oc1ccccc1N(CCO)CCNCCCN1C(=O)C2CC=CCC2C1=O` (stereo not drawn) [Compound No. 68, 2-[N-{N′-(2-Isopropoxyphenyl)aminoethyl}aminopropyl-N′-(β-hydroxyethyl]-3a,4,7,7a-tetrahydro-1H-isoindole-1,3(2H)-dione hydrochloride], for which the pKi on α1A adrenoceptor was 6.64; at α1B adrenoceptor, less than 5.00. For the same compound, the α1B/α1A at α1A adrenoceptor is listed as greater than 44.

Take `COc1ccccc1N1CC[N+]([O-])(CC(O)CN2C(=O)CCCC2=O)CC1` (stereo not drawn) [Compound No. 69, 1-[4-(2-Methoxyphenyl)piperazin-1-yl-1-N-oxide]-3-(2,6-dioxopiperidin-1-yl]-2-hydroxypropane]: the pKi at α1A adrenoceptor was 5.15; on α1B adrenoceptor, less than 5.00. Moreover, the α1B/α1A on α1A adrenoceptor is given as greater than 10.

Regarding `O=C1CCCC(=O)N1CCC[N+]1([O-])CCN(c2ccccc2O)CC1` [Compound No. 70, 1-[4-(2-Hydroxyphenyl)piperazin-1-yl-1-N-oxide]-3-(2,6-dioxopiperidin-1-yl]propane], on α1A adrenoceptor, the pKi was 5.17 and the α1B/α1A amounted to 0.7. Also, at α1B adrenoceptor, the pKi was 5.31.

As to `CC(C)Oc1ccccc1N1CCN(CCCN2C(=O)C3CC=CCC3C2=O)C(=O)C1=O` (stereo not drawn) [Compound No. 71, 2-[3-{4-(2-Isopropoxyphenyl)-2,3-dioxopiperazin-1-yl}-propyl]-3a,4,7,7a-tetrahydro-1H-isoindole-1,3(2H)-dione], the pKi was less than 6.00 on α1A adrenoceptor and less than 5.00 on α1B adrenoceptor. Further, the α1B/α1A at α1A adrenoceptor was found to be 1.

Take `CC(C)Oc1ccccc1N1CCN(CCCN2C(=O)C3C(O)C=CC(O)C3C2=O)CC1` (stereo not drawn) [Compound No. 72, 2-[3-{4-(2-Isopropoxyphenyl)piperazin-1-yl}propyl]-4,7-dihydroxy-3a,4,7,7a-tetrahydro-1H-isoindole-1,3(2H)-dione]: on α1A adrenoceptor, the pKi was 9.27 and the α1B/α1A amounted to 263. Besides, the pKi at α1B adrenoceptor was 6.85.

`CCN(CCCN1C(=O)C2CC=CCC2C1=O)CCNc1ccccc1OC(C)C` (stereo not drawn) [Compound No. 74, 2-[N-{N′-(2-Isopropoxyphenyl)aminoethyl}ethylaminopropyl]-3a,4,7,7a-tetrahydro-1H-isoindole-1,3(2H)-dione]: the pKi on α1A adrenoceptor is 6.69; on α1B adrenoceptor, less than 4.82. In addition, on α1A adrenoceptor, the α1B/α1A is recorded as greater than 74.

Consider `COC1=C(OC)CC2C(=O)N(CCCN3CCN(c4ccccc4OC(C)C)CC3)C(=O)C2C1` (stereo not drawn) [Compound No. 75, 2-[3-{4-(2-Isopropoxyphenyl)piperazin-1-yl}propyl]-5,6-dimethoxy-3a,4,7,7a-tetrahydro-1H-isoindole-1,3 (21H)-dione hydrochloride], for which, on α1A adrenoceptor, the pKi is 8.64 and the α1B/α1A is recorded as 31. Besides, the pKi at α1B adrenoceptor was 7.15.

For the compound `COC1CC2C(=O)N(CCCN3CCN(c4ccccc4OC(C)C)CC3)C(=O)C2CC1OC.Cl` (stereo not drawn) [Compound No. 76, 2-[3-{4-(2-Isopropoxyphenyl)piperazin-1-yl}propyl]-5,6-dimethoxy-3a,4,5,6,7,7a-hexahydro-1H-isoindole-1,3(2H)-dione hydrochloride], on α1A adrenoceptor, the pKi is 8.85 and the α1B/α1A is recorded as 137. Besides, the pKi at α1B adrenoceptor is 6.72.

In the case of `CC(C)Oc1ccccc1N1CCN(CCCN2C(=O)C3C(c4ccccc4)C=CC(c4ccccc4)C3C2=O)CC1` (stereo not drawn) [Compound No. 77, 2-[3-{4-(2-Isopropoxyphenyl)piperazin-1-yllpropyl]-4,7-diphenyl-3a,4,7,7a-tetrahydro-1H-isoindole-1,3(2H)-dione hydrochloride], on α1A adrenoceptor, the pKi was 6.31 and the α1B/α1A was 1.9. Besides, at α1B adrenoceptor, the pKi was 6.04.

`COc1ccccc1N1CCN(CCCN2C(=O)C3C(c4ccccc4)C=CC(c4ccccc4)C3C2=O)CC1.Cl` (stereo not drawn) [Compound No. 78, 2-[3-{4-(2-Methoxyphenyl)piperazin-1-yl}propyl]-4,7-diphenyl-3a,4,7,7a-tetrahydro-1H-isoindole-1,3(2H)-dione hydrochloride]: at α1A adrenoceptor, the pKi was 6.49 and the α1B/α1A came out at 1. Besides, the pKi at α1B adrenoceptor was 6.48.
